Blank lines part the entries; values can stand above or below the molecule they belong to.
Target: T1, human TLR7 (Homo sapiens, UniProt Q9NYK1)
T1 construct: host or cells: HEK293 (HEK-Blue hTLR7)
T1 sequence (Q9NYK1 27-1049): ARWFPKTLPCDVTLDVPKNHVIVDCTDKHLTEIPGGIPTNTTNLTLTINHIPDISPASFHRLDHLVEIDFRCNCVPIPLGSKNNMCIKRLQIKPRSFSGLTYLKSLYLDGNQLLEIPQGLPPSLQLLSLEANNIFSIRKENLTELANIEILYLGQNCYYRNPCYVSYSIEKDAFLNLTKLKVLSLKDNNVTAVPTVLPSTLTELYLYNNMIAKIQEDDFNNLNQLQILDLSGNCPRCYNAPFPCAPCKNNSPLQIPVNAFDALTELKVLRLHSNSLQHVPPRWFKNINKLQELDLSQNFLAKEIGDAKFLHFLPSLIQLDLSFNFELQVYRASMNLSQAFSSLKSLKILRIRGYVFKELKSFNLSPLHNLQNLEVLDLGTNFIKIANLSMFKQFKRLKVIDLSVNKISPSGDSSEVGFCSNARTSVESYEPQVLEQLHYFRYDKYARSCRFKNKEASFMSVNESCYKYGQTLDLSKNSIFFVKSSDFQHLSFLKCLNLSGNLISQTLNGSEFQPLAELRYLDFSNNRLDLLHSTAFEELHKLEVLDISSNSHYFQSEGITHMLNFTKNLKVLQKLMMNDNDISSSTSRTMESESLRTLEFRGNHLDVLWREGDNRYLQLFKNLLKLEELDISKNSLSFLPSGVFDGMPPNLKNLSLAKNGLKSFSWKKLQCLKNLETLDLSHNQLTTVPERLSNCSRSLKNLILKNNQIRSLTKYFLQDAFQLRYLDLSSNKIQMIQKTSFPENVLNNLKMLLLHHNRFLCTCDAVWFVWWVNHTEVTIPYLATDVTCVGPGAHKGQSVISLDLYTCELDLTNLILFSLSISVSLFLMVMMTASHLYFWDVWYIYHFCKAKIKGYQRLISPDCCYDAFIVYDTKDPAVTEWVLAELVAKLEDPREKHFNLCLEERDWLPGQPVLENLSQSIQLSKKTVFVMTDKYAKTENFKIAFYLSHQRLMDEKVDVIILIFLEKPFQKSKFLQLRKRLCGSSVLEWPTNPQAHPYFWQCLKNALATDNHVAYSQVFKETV
Experiment: HEK293-Blue-hTLR-7 cells assay
Assay type: cell-based
Details: HEK293-Blue-hTLR7 cells, R848 stimulation, 20 hrs, SEAP reporter; read-out: HEK/hTLR7 IC50
From the text: HEK293-Blue-hTLR-7 Cells Assay:
A stable HEK293-Blue-hTLR-7 cell line was purchased from InvivoGen (Cat. #: hkb-htlr7, San Diego, Calif., USA). These cells were originally designed for studying the stimulation of human TLR7 by monitoring the activation of NF-κB. A SEAP (secreted embryonic alkaline phosphatase) reporter gene was placed under the control of the IFN-β minimal promoter fused to five NF-κB and AP-1-binding sites. The SEAP was induced by activating NF-κB and AP-1 via stimulating HEK-Blue hTLR7 cells with TLR7 ligands. Therefore the reporter expression was declined by TLR7 antagonist under the stimulation of a ligand, such as R848 (Resiquimod), for incubation of 20 hrs. The cell culture supernatant SEAP reporter activity was determined using QUANTI-Blue™ kit (Cat. #: rep-qbl, Invivogen, San Diego, Ca, USA) at a wavelength of 640 nm, a detection medium that turns purple or blue in the presence of alkaline phosphatase.
HEK293-Blue-hTLR7 cells were incubated at a density of 250,000˜450,000 cells/mL in a volume of 170 μL in a 96-well plate in Dulbecco's Modified Eagle's medium (DMEM) containing 4.5 g/L glucose, 50 U/mL penicillin, […], […], 2 mM L-glutamine, 10% (v/v) heat-inactivated fetal bovine serum with addition of 20 μL test compound in a serial dilution in the presence of final DMSO at 1% and 10 μL of 20 uM R848 in above DMEM, perform incubation under 37° C. in a CO2 incubator for 20 hrs. Then 20 μL of the supernatant from each well was incubated with 180 μL Quanti-blue substrate solution at 37° C. for 2 hrs and the absorbance was read at 620-655 nm using a spectrophotometer. The signaling pathway that TLR7 activation leads to downstream NF-κB activation has been widely accepted, and therefore similar reporter assay was modified for evaluating TLR7 antagonist.

Compound: C[C@@H]1CN(c2ccc(C#N)c3ncccc23)C[C@@H]2c3ccc(N4CCCNCC4)nc3CN12 [Example 20, 5-[(2S,6R)-11-(1,4-diazepan-1-yl)-6-methyl-4,7,10-triazatricyclo[7.4.0.02,7]trideca-1(9),10,12-trien-4-yl]quinoline-8-carbonitrile]
IC50: 2 nM

Compound: [2H]c1ccc2c(N3C[C@@H](C)N4Cc5nc(OC6CCNCC6)ccc5[C@H]4C3)ccc(C#N)c2n1 [Example 24, 2-Deuterio-5-[(2S,6R)-6-methyl-11-(4-piperidyloxy)-4,7,10-triazatricyclo[7.4.0.02,7]trideca-1(9),10,12-trien-4-yl]quinoline-8-carbonitrile]
IC50: 1 nM

Compound: [2H]c1ccc2c(N3C[C@@H](C)N4Cc5nc(N6CC[C@@H](N)[C@H](OC)C6)ccc5[C@H]4C3)ccc(C#N)c2n1 [Example 11, 5-[(2S,6R)-11-[(3R,4R)-4-amino-3-methoxy-1-piperidyl]-6-methyl-4,7,10-triazatricyclo[7.4.0.02,7]trideca-1(9),10,12-trien-4-yl]-2-deuterio-quinoline-8-carbonitrile]
IC50: 3.7 nM

Compound: C[C@@H]1CN(c2ccc(C#N)c3ncccc23)C[C@@H]2c3cnc(N4CCNCC4)cc3CN12 [Example 2, 5-[(2S,6R)-6-methyl-11-piperazin-1-yl-4,7,12-triazatricyclo[7.4.0.02,7]trideca-1(9),10,12-trien-4-yl] quinoline-8-carbonitrile]
IC50: 3.1 nM

Compound: [2H]c1ccc2c(N3C[C@@H](C)N4Cc5nc(N6CCC7(CC6)CNCCO7)ccc5[C@H]4C3)ccc(C#N)c2n1 [Example 18, 2-Deuterio-5-[(2S,6R)-6-methyl-11-(1-oxa-4,9-diazaspiro[5.5]undecan-9-yl)-4,7,10-triazatricyclo[7.4.0.02,7]trideca-1(9),10,12-trien-4-yl]quinoline-8-carbonitrile]
IC50: 1.3 nM

Compound: C[C@@H]1CN(c2ccc(C#N)c3ncccc23)C[C@@H]2c3ccc(N4CC5CNCC(C4)O5)nc3CN12 [Example 6, 5-[(2S,6R)-6-methyl-11-(9-oxa-3,7-diazabicyclo[3.3.1]nonan-3-yl)-4,7,10-triazatricyclo[7.4.0.02,7]trideca-1(9),10,12-trien-4-yl]quinoline-8-carbonitrile]
IC50: 4.9 nM

Compound: [2H]c1ccc2c(N3C[C@@H](C)N4Cc5nc(N6CC[C@](C)(N)C6)ccc5[C@H]4C3)ccc(C#N)c2n1 [Example 8, 5-[(2S,6R)-11-[(3S)-3-amino-3-methyl-pyrrolidin-1-yl]-6-methyl-4,7,10-triazatricyclo[7.4.0.02,7]trideca-1(9),10,12-trien-4-yl]-2-deuterio-quinoline-8-carbonitrile]
IC50: 1.3 nM

Compound: [2H]c1ccc2c(N3C[C@@H](C)N4Cc5nc(N6C[C@@H]7C[C@H]6CN7)ccc5[C@H]4C3)ccc(C#N)c2n1 [Example 16, 2-Deuterio-5-[(2S,6R)-11-[(1S,4S)-2,5-diazabicyclo[2.2.1]heptan-2-yl]-6-methyl-4,7,10-triazatricyclo[7.4.0.02,7]trideca-1(9),10,12-trien-4-yl]quinoline-8-carbonitrile]
IC50: 1.7 nM

Compound: [2H]c1ccc2c(N3C[C@@H](C)N4Cc5nc(N6CC[C@H](N)[C@@H](OC)C6)ccc5[C@H]4C3)ccc(C#N)c2n1 [Example 12, 5-[(2S,6R)-11-[(3S,4S)-4-amino-3-methoxy-1-piperidyl]-6-methyl-4,7,10-triazatricyclo[7.4.0.02,7]trideca-1(9),10,12-trien-4-yl]-2-deuterio-quinoline-8-carbonitrile]
IC50: 1.6 nM

Compound: [2H]c1ccc2c(N3C[C@@H](C)N4Cc5nc(N6C[C@H]7C[C@@H]6CN7)ccc5[C@H]4C3)ccc(C#N)c2n1 [Example 17, 2-Deuterio-5-[(2S,6R)-11-[(1R,4R)-2,5-diazabicyclo[2.2.1]heptan-2-yl]-6-methyl-4,7,10-triazatricyclo[7.4.0.02,7]trideca-1(9),10,12-trien-4-yl]quinoline-8-carbonitrile]
IC50: 2.7 nM

Compound: [2H]c1ccc2c(N3C[C@@H](C)N4Cc5nc(N6CC[C@H](OC)[C@@H](N)C6)ccc5[C@H]4C3)ccc(C#N)c2n1 [Example 14, 5-[(2S,6R)-11-[(3S,4S)-3-amino-4-methoxy-1-piperidyl]-6-methyl-4,7,10-triazatricyclo[7.4.0.02,7]trideca-1(9),10,12-trien-4-yl]-2-deuterio-quinoline-8-carbonitrile]
IC50: 3.4 nM

Compound: [2H]c1ccc2c(N3C[C@@H](C)N4Cc5nc(C6CCNCC6)ccc5[C@H]4C3)ccc(C#N)c2n1 [Example 23, 2-Deuterio-5-[(2S,6R)-6-methyl-11-(4-piperidyl)-4,7,10-triazatricyclo[7.4.0.02,7]trideca-1(9),10,12-trien-4-yl]quinoline-8-carbonitrile]
IC50: 1.7 nM

More lines, in order of falling IC50, values ahead:

IC50: 14.8 nM
Compound: N#Cc1ccc(N2CCN3Cc4nc(N5CCNCC5)ccc4[C@@H]3C2)c2cccnc12 [Example 3A, 5-[(2R)-11-piperazin-1-yl-4,7,10-triazatricyclo[7.4.0.02,7]trideca-1(9),10,12-trien-4-yl]quinoline-8-carbonitrile]

IC50: 7 nM
Compound: C[C@@H]1CN(c2ccc(C#N)n3nccc23)C[C@@H]2c3ccc(N4C[C@@H]5C[C@H]4CN5)nc3CN12 [Example 21, 4-[(2S,6R)-11-[(1S,4S)-2,5-diazabicyclo[2.2.1]heptan-2-yl]-6-methyl-4,7,10-triazatricyclo[7.4.0.02,7]trideca-1(9),10,12-trien-4-yl]pyrazolo[1,5-a]pyridine-7-carbonitrile]

IC50: 6.5 nM
Compound: [2H]c1ccc2c(N3C[C@@H](C)N4Cc5nc(N6CCC7(CNC7)C6)ccc5[C@H]4C3)ccc(C#N)c2n1 [Example 9, 2-Deuterio-5-[(2S,6R)-11-(2,6-diazaspiro[3.4]octan-6-yl)-6-methyl-4,7,10-triazatricyclo[7.4.0.02,7]trideca-1(9),10,12-trien-4-yl]quinoline-8-carbonitrile]

IC50: 2.8 nM
Compound: [2H]c1ccc2c(N3C[C@@H](C)N4Cc5nc(N6CC[C@@](C)(N)C6)ccc5[C@H]4C3)ccc(C#N)c2n1 [Example 7, 5-[(2S,6R)-11-[(3R)-3-amino-3-methyl-pyrrolidin-1-yl]-6-methyl-4,7,10-triazatricyclo[7.4.0.02,7]trideca-1(9),10,12-trien-4-yl]-2-deuterio-quinoline-8-carbonitrile]

IC50: 1.7 nM
Compound: [2H]c1ccc2c(N3C[C@@H](C)N4Cc5nc(N6CC[C@H](N)[C@H](OC)C6)ccc5[C@H]4C3)ccc(C#N)c2n1 [Example 13, 5-[(2S,6R)-11-[(3R,4S)-4-amino-3-methoxy-1-piperidyl]-6-methyl-4,7,10-triazatricyclo[7.4.0.02,7]trideca-1(9),10,12-trien-4-yl]-2-deuterio-quinoline-8-carbonitrile]

IC50: 1.1 nM
Compound: [2H]c1ccc2c(N3C[C@@H](C)N4Cc5nc(N6CCC(C)(N)CC6)ccc5[C@H]4C3)ccc(C#N)c2n1 [Example 19, 5-[(2S,6R)-11-(4-amino-4-methyl-1-piperidyl)-6-methyl-4,7,10-triazatricyclo[7.4.0.02,7]trideca-1(9),10,12-trien-4-yl]-2-deuterio-quinoline-8-carbonitrile]

IC50: 0.9 nM
Compound: C[C@@H]1CN(c2ccc(C#N)c3ncccc23)C[C@@H]2c3ccc(N4CCNCC4)nc3CN12 [Example 5, 5-[(2S,6R)-6-methyl-11-piperazin-1-yl-4,7,10-triazatricyclo[7.4.0.02,7]trideca-1(9),10,12-trien-4-yl]quinoline-8-carbonitrile]
